ChEMBL document CHEMBL6134833, “Recent advances in CDC7 kinase inhibitors: Novel strategies for the treatment of cancers and neurodegenerative diseases” (Eur J Med Chem, 2025)
Each block holds one molecule with its values, some of them ahead of it.

Experiments:
[1] = target: Cyclin-dependent kinase 2/cyclin A (Homo sapiens, UniProt P24941); assay: Inhibition of CDK2/Cyclin A (unknown origin); type: protein-complex assay
Casein kinase 2 = Casein kinase 2 (Homo sapiens, UniProt P67870+P68400+P19784+Q8NEV1); assay: Inhibition of CK2 (unknown origin); type: protein assay
[2] = Metabolic stability in human liver microsome assessed as microsomal clearance; type: ADME; conditions: microsomes
[3] = Metabolic stability in rat liver microsome assessed as microsomal clearance; type: ADME; conditions: microsomes
CDK3/Cyclin E = CDK3/Cyclin E (Homo sapiens, UniProt Q00526); assay: Inhibition of CDK3/cyclin E1 (unknown origin) by ADP-Glo kinase assay; type: protein-complex assay
Chain of CDK3/Cyclin E (P24864 whole entry): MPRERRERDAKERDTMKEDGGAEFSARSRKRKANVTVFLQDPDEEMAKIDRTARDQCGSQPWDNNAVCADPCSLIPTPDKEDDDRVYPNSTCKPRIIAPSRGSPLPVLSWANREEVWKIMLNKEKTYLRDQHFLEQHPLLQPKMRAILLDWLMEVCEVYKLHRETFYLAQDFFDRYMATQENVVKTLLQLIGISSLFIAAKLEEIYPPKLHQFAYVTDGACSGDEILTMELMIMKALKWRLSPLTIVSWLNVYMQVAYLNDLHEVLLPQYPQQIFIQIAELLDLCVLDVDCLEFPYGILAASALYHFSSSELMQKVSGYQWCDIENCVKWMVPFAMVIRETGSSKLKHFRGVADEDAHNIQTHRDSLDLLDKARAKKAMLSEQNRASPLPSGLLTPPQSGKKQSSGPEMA
Chain of CDK3/Cyclin E (Q00526 whole entry): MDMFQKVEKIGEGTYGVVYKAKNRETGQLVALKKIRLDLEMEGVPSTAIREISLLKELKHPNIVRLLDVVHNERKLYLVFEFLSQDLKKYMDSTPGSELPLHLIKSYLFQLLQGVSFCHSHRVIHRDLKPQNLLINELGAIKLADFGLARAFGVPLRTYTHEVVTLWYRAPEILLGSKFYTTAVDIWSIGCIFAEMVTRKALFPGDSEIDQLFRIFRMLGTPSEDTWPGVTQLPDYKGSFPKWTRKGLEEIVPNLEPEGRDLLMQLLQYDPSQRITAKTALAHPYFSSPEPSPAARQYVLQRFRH

[4] = Inhibition of MCM2 (unknown origin); parameters: species or system Homo sapiens
[5] = target: T1, Cell division cycle 7-related protein kinase (Homo sapiens, UniProt O00311); assay: Inhibition of CDC7 (unknown origin)
T1 sequence (O00311 whole entry, the tested form may be a part): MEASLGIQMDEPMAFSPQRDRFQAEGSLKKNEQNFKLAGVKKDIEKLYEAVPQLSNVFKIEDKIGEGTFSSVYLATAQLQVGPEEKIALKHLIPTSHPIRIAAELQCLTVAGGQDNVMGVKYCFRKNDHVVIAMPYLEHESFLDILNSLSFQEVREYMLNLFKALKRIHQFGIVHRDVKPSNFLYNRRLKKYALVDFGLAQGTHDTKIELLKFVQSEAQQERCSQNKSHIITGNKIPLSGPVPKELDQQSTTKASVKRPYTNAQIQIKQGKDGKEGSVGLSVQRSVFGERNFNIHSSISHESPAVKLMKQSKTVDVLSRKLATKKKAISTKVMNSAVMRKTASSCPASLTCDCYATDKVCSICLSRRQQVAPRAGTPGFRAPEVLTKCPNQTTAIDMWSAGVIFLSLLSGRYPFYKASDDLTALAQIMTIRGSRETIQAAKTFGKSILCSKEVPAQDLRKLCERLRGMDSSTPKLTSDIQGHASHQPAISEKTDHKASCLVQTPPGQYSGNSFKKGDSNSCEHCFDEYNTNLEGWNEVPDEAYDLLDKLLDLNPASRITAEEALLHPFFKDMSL

[6] = target: T1, Cell division cycle 7-related protein kinase; assay: Inhibition of GST full length human CDC7 (1 to 574 residues) expressed in baculovirus expression system

IC50 [1]: 1100 nM
SMILES: NC(=O)c1cc(-c2ccncc2)[nH]c1-c1ccccc1

IC50 (Casein kinase 2): 1.5 µM
SMILES: O=c1[nH]cnc2c1oc1ccc(Br)cc12

IC50 (Casein kinase 2): 0.215 µM
SMILES: O=c1[nH]c([C@@H]2CCCN2)nc2c1oc1ccc(Cl)cc12

CLH [2]: 30 µL/min/µg | CLH [3]: 102 µL/min/µg
SMILES: Nc1nccc(-n2cc(-c3cccnc3Cl)c3cnc(Cl)cc32)n1

CLH [2]: 21 µL/min/µg | CLH [3]: 72 µL/min/µg
SMILES: Nc1nccc(-n2cc(-c3cccnc3Cl)c3cnccc32)n1

CLH [2]: 60 µL/min/µg | CLH [3]: 50 µL/min/µg
SMILES: Nc1nccc(-n2ccc3ncccc32)n1

CLH [2]: 62 µL/min/µg | CLH [3]: 101 µL/min/µg
SMILES: Nc1nccc(-n2ccc3cnccc32)n1

IC50 (CDK3/Cyclin E): 6.5 µM | IC50 [4]: 36 nM
SMILES: Cc1n[nH]cc1-c1cc2nc([C@@H]3CCCCN3)[nH]c(=O)c2s1

IC50 [5]: < 1000 nM
SMILES: N[C@H](c1nc2cc(-c3ccncc3F)sc2c(=O)[nH]1)C1CC1

IC50 [6]: 91.2 nM
SMILES: Cn1nccc1-c1nc(C2CCOCC2)c(Cl)c(=O)[nH]1

SMILES: O=c1[nH]c([C@@H]2CC3CCN2CC3)nc2c3c(sc12)-c1c[nH]nc1CCC3
IC50 [5]: 3020 nM

IC50 [5]: < 1000 nM
SMILES: Cc1[nH]c(=O)c2sc(-c3cn[nH]c3)c3c2c1CCCO3
